Data from patent US7619008B2, “Xylitol for treatment of vaginal infections” (Kimberly-Clark Worldwide, Inc., priority 2004, dated 2009).

How the values were obtained:
Gardnerella vaginalis [1] = experiment: Optical density after 24 hours (Example 13); format: cell-based; conditions: 1.0% (wt/vol) in growth medium pH 6.0, after 24 hours (FIG. 12)
Experimental: A growth medium for Gardnerella vaginalis was prepared according to the manufacturer's instructions, and the pH of this medium was adjusted to pH 6.0 using 1N HCl. D-ribose (99%, Calbiochem), D-arabinose (98%, Alfa Aesar), D-xylose (Aldrich), D-lyxose (99%, Avovado), D-arabitol (97%, Alfa Aesar), adonitol (99%, Alfa Aesar), xylitol (99%, Alfa Aesar), xylitol (98%, Danisco), and xylitol (98%, Aldrich) were then dissolved into the growth medium at a concentration of 1.0% (wt/vol). 0.9 milliliters of the culture medium was also added into a different culture tube as a control. Thereafter, 0.1 milliliter of Garnerella vaginalis culture suspension (concentration of 1×10^6/milliliter) was added to each of the culture tubes, and then incubated overnight at 37° C., and the optical density was then measured after 24 hours at a wavelength of 595 nanometers. This was accomplished by pipetting 100 microliters of the control or sample solutions into 96-well microplates, and then using a ThermoMax Microplate Reader from Molecular Devices of Sunnyvale, Calif. to obtain the optical density readings. The results are depicted in FIG. 12.

Gardnerella vaginalis [2] = experiment: Average plate count after 24 hours with gel compositions and solutions (Example 8); format: cell-based; conditions: 1 ml sample + 0.8 ml growth medium + 0.2 ml suspension, 24 hours at 37° C., triplicate, compositions per Table 8
Experimental: Samples 1-2 were prepared by dissolving the KELCOGEL® (0.07 grams) and/or xylitol (0.44 grams) into 10 milliliters of water heated to between 70° C. to 80° C. Samples 3-4 and 6 were formed by first autoclaving a gallic acid stock solution (0.75 grams of gallic acid/20 mL water), autoclaving, and then adding 200 microliters of sterile gallic acid (0.0075 grams) to each sterile solution. Sample 5 was formed by dissolving 0.44 grams of xylitol in deionized water, followed by autoclaving. Sample 7 was formed by dissolving 0.44 grams of xylitol in sterilized growth medium for Gardnerella vaginalis and then filtering. The amount of xylitol was selected to yield isotonic solutions. After vortexing the solutions to help dissolve the solids, they were allowed to cool to room temperature.
Upon formation, 1 milliliter of each control or sample solution was then added into a culture tube, followed by the addition of 0.8 milliliters of growth medium for Gardnerella vaginalis. To this mixture was added 0.2 milliliters of a Gardnerella vaginalis suspension (at a concentration of around 10^6 cfu/ml; diluted from 10^8 cfu/ml stock). The tubes were incubated in culture tubes at 37° C. After 24 and 48 hours, the optical density was measured for each sample at wavelengths of 450 and 595 nanometers. The 24-hr solution samples were then diluted at 0.001× and 0.0001×. 3 milliliters of growth medium were then added into the 24-hour composition samples, followed by 1 hour of shaking at 30° C. Solution was then taken from well-shaken test tubes and diluted at 0.001× and 0.0001×. “WASP” (Whitely Automatic Spiral Plate) spiral plating equipment from Don Whitely Scientific Limited was used to plate 100 microliters of the above solutions onto agar plates. The plates were incubated overnight at 35° C. The number of colonies on each plate was counted using ProtoCol® software from Synbiosis of Frederick, Md. All samples were plated in triplicate.

Gardnerella vaginalis [3] = experiment: Zone of inhibition on agar plates (Examples 1 and 4); format: cell-based; conditions: 10%, tested as in Example 1
Experimental: Gardnerella vaginalis was obtained from the American Type Culture Collection (ATCC #14018). The culture medium was Casman's medium base (BD 229010) with 5% rabbit blood (ATCC medium 70).
A microorganism culture of 10^5cfu (colony forming units)/ml in a 1× phosphate buffered saline (PBS) solution (diluted from 10× PBS LIQUID CONCENTRATE from VWR Cat. No. EM-6507] was used. One milliliter of the solution was plated on proper agar plates, depending on which microorganism was being tested. The agar plates were incubated at 35° C. for 4 hours. Three 4-millimeter diameter wells were then punched in each agar plate. […] No. 28390, Pierce Biotechnology, Inc., Rockford, Ill.) was added to one well of each plate. Into each of the other two wells were added MES buffer and 1% benzyl quats (diluted from BARDAC® 205M, from Lonza Inc., Fair Lawn, N.J.) as negative and positive controls, respectively. The plates were incubated overnight at 35° C.
The following day, the “zone of inhibition” for each sample was then measured for Gardnerella vaginalis and Lactobacillus acidophilus activity. The “zone of inhibition” is a circular zone formed around the agar plate in which the growth of the microorganism is inhibited. Absent treatment with an effective antimicrobial agent, the bacterial cells would normally produce an opaque lawn of growth. However, when growth is inhibited, a clear zone is observed. […]

[4] = test system: Lactobacillus acidophilus; experiment: as above; format: cell-based; conditions: 10%, tested as in Example 1
Experimental: Lactobacillus acidophilus was obtained from the American Type Culture Collection (ATCC #4356). The culture medium was Lactobacilli MRS broth (ATCC medium 416).
A microorganism culture of 10^5cfu (colony forming units)/ml in a 1× phosphate buffered saline (PBS) solution (diluted from 10× PBS LIQUID CONCENTRATE from VWR Cat. No. EM-6507] was used. One milliliter of the solution was plated on proper agar plates, depending on which microorganism was being tested. The agar plates were incubated at 35° C. for 4 hours. Three 4-millimeter diameter wells were then punched in each agar plate. A test sample of 100 microliters of 5% xylitol in sterilized 2-N-morpholino ethane sulfonic buffer (0.1 M 2-[morpholino]-ethanesulfonic acid, 0.9% NaCl, pH 4.7, prepared from BupH™ MES Buffer Saline Pack from Cat. No. 28390, Pierce Biotechnology, Inc., Rockford, Ill.) was added to one well of each plate. Into each of the other two wells were added MES buffer and 1% benzyl quats (diluted from BARDAC® 205M, from Lonza Inc., Fair Lawn, N.J.) as negative and positive controls, respectively. The plates were incubated overnight at 35° C.
The following day, the “zone of inhibition” for each sample was then measured for Gardnerella vaginalis and Lactobacillus acidophilus activity. The “zone of inhibition” is a circular zone formed around the agar plate in which the growth of the microorganism is inhibited. […]

Gardnerella vaginalis [5] = experiment: Optical density of culture tubes (Example 2); format: cell-based; conditions: 2, 4, 6 and 24 hours at 37° C., n=4
Experimental: (§1) Test compounds were dissolved in culture media to form a suspension. Control or xylitol solutions (0.9 milliliters) were filtered and added into culture tubes, and to this was added 0.1 milliliter of either the Gardnerella vaginalis or Lactobacillus acidophilus suspension at a concentration of around 10^6 cfu/milliliter. The culture tubes were then incubated overnight at 37° C., whereafter the optical density was measured at 2, 4, 6 and 24 hours by pipetting 100 microliters of the control or sample solutions into 96-well microplates, and then using a ThermoMax Microplate Reader (Molecular Devices of Sunnyvale, Calif.) to obtain the optical density readings at 590 or 600 nm wavelengths. […] The inhibition effect remained evident throughout the 24-hour experimental period.

[6] = test system: Lactobacillus acidophilus; experiment: Optical density of culture tubes (Example 2); format: cell-based; conditions: 2, 4, 6 and 24 hours at 37° C., n=4
Experimental: as §1

Gardnerella vaginalis [7] = experiment: Plate count after 6 hours treatment (Example 3); format: cell-based; conditions: for Plate Count, G. Vaginalis: 6 hours at 37° C., n = 4
Experimental: (§2) Test compounds were dissolved in culture media to form a suspension. Control or xylitol solutions (0.9 milliliters) were filtered and added into culture tubes. To these solutions, 0.1 milliliter of the Gardnerella vaginalis or Lactobacillus acidophilus suspension was then added at a concentration of around 10^6 cfu/milliliter. The culture tubes were incubated at 37° C. for 6 hours. The samples in the culture tubes were then diluted at 1, 10 and 100 times, and 100 microliters of each dilution was plated onto agar plates with WASP (Whitely Automatic Spiral Plate) spiral plating equipment from Don Whitely Scientific Limited, USA. The plates were incubated overnight at 35° C., and the numbers of colonies were counted on each plate by either ProtoCol® from Synbiosis, Frederick, Md., USA Whitely Scientific Limited, USA or by hand count. The results are shown below in Tables 2-3 and in FIG. 2,

[8] = test system: Lactobacillus acidophilus; experiment: Plate count after 6 hours treatment (Example 3); format: cell-based; conditions: for Plate Count, L. acidophilus: 6 hours at 37° C., n = 4
Experimental: as §2

[9] = pH and gelation properties of acid-modified KELCOGEL/xylitol solutions (Example 5); format: physicochemical; conditions: 4.4% (wt/vol) xylitol in 0.7% KELCOGEL solutions
Experimental: Solutions were formed from xylitol and a gellan gum obtained from CP Kelco U.S., Inc. of Chicago, Ill. under the name KELCOGEL®. The solutions contained 0.7% (wt/vol) of the KELCOGEL® gum and 4.4% (wt/vol) xylitol, and were formed by dissolving 0.07 grams of the polymer powder and 0.44 grams of xylitol into 10 milliliters of water at a temperature between 70° C. to 80° C. After vortexing the solutions to help dissolve the solids, they were allowed to cool to room temperature. After cooling, the pH of the solutions was adjusted using varying amounts of either acetic acid or lactic acid.

Trichomonas vaginalis = experiment: Viable cell count under microscope (Example 10); format: cell-based; conditions: for Trichomonas vaginalis cell count in comparison to the control group: xylitol 0.5%, 3.0%, 5.0%
Experimental: Trichomonas vaginalis was obtained from the American Type Culture Collection (ATCC #30001). The culture medium was LYI-S-2 medium (ATCC medium 2154). A sterile LYI-S-2 medium was prepared according to the manufacturer's instructions, and the pH of this medium was adjusted to pH 6.0 using 1 N HCl. Xylitol was then dissolved into the LYI-S-2 medium at concentrations of 0.5%, 3.0%, and 5.0% (wtvol). 0.9 milliliters of xylitol and culture medium (as control) were also added into different culture tubes. Thereafter, 0.1 milliliter of Trichomonas vaginalis culture suspension (concentration of 1×10^6/milliliter) was added to each of the culture tubes, and then incubated at 35° C. on a 15 degree horizontal slant. The viable Trichomonas vaginalis cells in each tube were counted under a microscope after 24 and 48 hours. The above procedure was repeated four times for each concentration of xylitol and the control.

Candida albicans = experiment: Viable cell count after 24 hours (Example 12); format: cell-based; conditions: xylitol 1%, 2%, 3%, 4%, 5.0% (wt/vol) in YM medium pH 6.0, after 24 hours (FIG. 11)
Experimental: A YM culture medium was prepared according to the manufacturer's instructions, and the pH of this medium was adjusted to pH 6.0 using 1N HCl. Xylitol was then dissolved into the YM medium at concentrations of 1%, 2%, 3%, 4%, and 5.0% (wt/vol). 0.9 milliliters of the culture medium were also added into a different culture tube as a control. Thereafter, 0.1 milliliter of Candida albicans culture suspension (concentration of 1×10^6/milliliter) was added to each of the culture tubes, and then incubated at 37° C. The viable Candida albicans cells in each tube were counted under a microscope after 24 hours. The above procedure was repeated four times for each concentration and the control.

For `O=C[C@H](O)[C@H](O)[C@H](O)CO` [D-ribose], the “Gardnerella vaginalis cell count in comparison to the control group (optical density 595 nanometers)” value (Gardnerella vaginalis [1]) was “significantly reduced”.
For `O=C(O)c1cc(O)c(O)c(O)c1` [Gallic acid, trihydroxybenzoic acid], the “Average Plate Count, Gardnerella vaginalis” value (“Average Plate Count” below) (Gardnerella vaginalis [2]) was 3.43 × 10^4.
For `OC[C@@H](O)[C@H](O)[C@@H](O)CO` [Xylitol in growth media, xylitol], the “Average Plate Count” value (Gardnerella vaginalis [2]) was 2.40 × 10^4.
With `O=C[C@H](O)[C@@H](O)[C@H](O)[C@H](O)CO` [glucose] the “zone of inhibition, Gardnerella vaginalis” value (Gardnerella vaginalis [3]) was 0 mm and the “zone of inhibition, Lactobacillus acidophilus” value [4] was 0 mm.
With `OC[C@@H](O)[C@@H](O)[C@H](O)[C@@H](O)CO` [sorbitol] the “zone of inhibition, Gardnerella vaginalis” value (Gardnerella vaginalis [3]) was 0 mm and the “zone of inhibition, Lactobacillus acidophilus” value [4] was 0 mm.
With `OC[C@@H](O)[C@H](O)[C@@H](O)CO` [xylitol, D-xylitol] the “inhibition of growth of Gardnerella vaginalis (optical density, FIG. 3)” value (Gardnerella vaginalis [5]) was “significant inhibition”, the “inhibition of growth of Lactobacillus acidophilus (optical density, FIG. 4)” value [6] was “did not exhibit any significant inhibition” and the “Plate Count, G. Vaginalis” value (Gardnerella vaginalis [7]; 1% xylitol) was “*1.24E+05”. The “Plate Count, G. Vaginalis” value (Gardnerella vaginalis [7]; 2% xylitol) was “*1.64E+03”, the “Plate Count, G. Vaginalis” value (Gardnerella vaginalis [7]; 3% xylitol) was “*4.63E+02” and the “Plate Count, G. Vaginalis” value (Gardnerella vaginalis [7]; 4% xylitol) was “*1.03E+02”. For the same compound, the “Plate Count, G. Vaginalis” value (Gardnerella vaginalis [7]; 5% xylitol) was “*1.98E+01”, the “inhibition of Gardnerella vaginalis growth compared to the control group” value (Gardnerella vaginalis [7]; all five concentrations (1-5% xylitol), 6 hours) was “significant inhibition” and the “inhibition of the growth of Lactobacillus acidophilus” value ([8]; 1% and 5% xylitol, 6 hours) was “did not exhibit any significant inhibition”. The “Plate Count, L. acidophilus” value ([8]; 1% xylitol) was 3.77 ± 0.49 E+05, the “Plate Count, L. acidophilus” value ([8]; 5% xylitol) was 3.97 ± 0.36 E+05 and the “effect on gelation ability of the polymer” value [9] was “did not appear to negatively impact”. The “Average Plate Count” value (Gardnerella vaginalis [2]) was “significant inhibition”, the “Average Plate Count” value (Gardnerella vaginalis [2]; listed as Xylitol) was 1.56 × 10^4 and the “live Trichomonas vaginalis cells” value (Trichomonas vaginalis; 3% xylitol, after 48 hours) was “No live”. The “live Trichomonas vaginalis cells” value (Trichomonas vaginalis; 5% xylitol, after 48 hours) was “No live”, the “Trichomonas vaginalis cell count in comparison to the control group” value (Trichomonas vaginalis; after 24 hours, pH 6.0, 35° C. (FIG. 8)) was “significantly reduced” and the “Trichomonas vaginalis cell count in comparison to the control group” value (Trichomonas vaginalis; after 48 hours, pH 6.0, 35° C. (FIG. 9)) was “even more significant inhibitory effect”. For the same compound, the “Candida albicans cell count in comparison to the control group” value (Candida albicans) was “significantly reduced” and the “Gardnerella vaginalis cell count in comparison to the control group (optical density 595 nanometers)” value (Gardnerella vaginalis [1]) was “significantly reduced”.
